Data on 13 molecules can be found in US20180117043A1, “USE OF SRC PROTEIN INHIBITOR IN THE MANUFACTURE OF A MEDICAMENT FOR THE PROPHYLAXIS AND/OR TREATMENT OF ALZHEIMER'S DISEASE” (JenKem Technology Co., Ltd. (Beijing), priority 2015, published 2018).

The subject of data set [1] is transgenic fruit flies and double transgenic mice expressing Aβ42. As to conditions: cited from earlier work; for treatment of Aβ42-induced memory loss: transgenic fruit flies and double transgenic mice expressing Aβ42, WO2012/103282; for curative effect in screening: compounds screened in WO2012/103282.
For data set [2], the system named is primary isolated fetal mouse cerebral cortical neuron. Put plainly: Neuroprotective activity assay against Aβ42 oligomer toxicity, cell viability detected with WST-8. Conditions: 24 h. On the technique in general: Tetrazolium dyes change colour on reduction, which living cells bring about.
Setting [3] is: 0.001 μM/L drug + Aβ42 10 μmol/L.
[4] abbreviates: 0.01 μM/L drug + Aβ42 10 μmol/L.
Where [5] appears, read: 1000 μM/L drug + Aβ42 10 μmol/L.
Where [6] appears, read: Aβ42 oligomer 10 μmol/L, compared with model group.

Consider `COc1cc2c(Nc3ccc(Cl)c(Cl)c3F)ncnc2cc1OC[C@@H]1C[C@@H]2CN(C)C[C@@H]2C1` [XL647], for which the “treatment of Aβ42-induced memory loss” value in data set [1] was “effective”.

For the molecule `Cc1nc(Nc2ncc(C(=O)Nc3c(C)cccc3Cl)s2)cc(N2CCN(CCO)CC2)n1` [Compound I, N-(2-chloro-6-methylphenyl)-2-{6-[4-(3-hydroxyethyl)-1-piperazinyl]-2-methyl-4-pyrimidinylamino}-5-thiazolecarboxamide], the “Mean value of cell viability based on three independent replicates” value (shortened to “Mean value of cell viability based”) in data set [2] (0.001 μM drug + Aβ42 10 μmol/L) is 46.65%; in data set [2] (0.01 μM drug + Aβ42 10 μmol/L), 67.99%; in data set [2] (0.1 μM drug + Aβ42 10 μmol/L), 71.02%; in data set [2] (1.0 μM drug + Aβ42 10 μmol/L), 72.44%; in data set [2] (10 μM drug + Aβ42 10 μmol/L), 63.20%; in data set [2] (100 μM drug + Aβ42 10 μmol/L), 73.40%. The “Mean value of cell viability based” value in data set [2] (1000 μM drug + Aβ42 10 μmol/L) is given as 64.34%. Also, the “Cell viability data in the first independent test” value in data set [2] (setting [3]) was found to be 26.98%; in data set [2] (setting [4]), 69.31%; in data set [2] (0.1 μM/L drug + Aβ42 10 μmol/L), 80.78%; in data set [2] (1 μM/L drug + Aβ42 10 μmol/L) it was 76.90%; in data set [2] (10 μM/L drug + Aβ42 10 μmol/L), 68.61%; in data set [2] (100 μM/L drug + Aβ42 10 μmol/L), 74.43%. Moreover, the “Cell viability data in the first independent test” value in data set [2] (setting [5]) was found to be 76.72%. The “Cell viability data in the second independent test” value is given as 54.70% in data set [2] (setting [3]); 67.22% in data set [2] (setting [4]); 64.25% in data set [2] (0.1 μM/L drug + Aβ42 10 μmol/L); 65.73% in data set [2] (1 μM/L drug + Aβ42 10 μmol/L); 56.51% in data set [2] (10 μM/L drug + Aβ42 10 μmol/L); 86.16% in data set [2] (100 μM/L drug + Aβ42 10 μmol/L). In data set [2] (setting [5]), the “Cell viability data in the second independent test” value is given as 63.92%. Further, the “Cell viability data in the third independent test” value in data set [2] (setting [3]) is on record as 58.28%; in data set [2] (setting [4]) it was 67.46%; in data set [2] (0.1 μM/L drug + Aβ42 10 μmol/L) it was 68.05%; in data set [2] (1 μM/L drug + Aβ42 10 μmol/L), 74.70%; in data set [2] (10 μM/L drug + Aβ42 10 μmol/L) it was 64.50%; in data set [2] (100 μM/L drug + Aβ42 10 μmol/L), 59.62%. The “Cell viability data in the third independent test” value in data set [2] (setting [5]) worked out at 52.37%. In addition, the “dose span of effective concentration range relative to JKF-027” value in data set [2] (Aβ42 oligomer 10 μmol/L) was 10^4 times. Also, the “effective concentration range (anti-toxic effect against Aβ42 oligomer)” value in data set [2] (setting [6]) fell in the range of 0.01 to 1000 µmol/L.

Take `C=CCNC1=C2C[C@@H](C)C[C@H](OC)[C@H](O)[C@@H](C)/C=C(\C)[C@H](OC(N)=O)[C@@H](OC)/C=C\C=C(/C)C(=O)NC(=CC1=O)C2=O` [Compound 17-AAG]: in data set [1], the “treatment of Aβ42-induced memory loss” value is “effective”.

In the case of `CCOc1cc2ncc(C#N)c(Nc3ccc(F)c(Cl)c3)c2cc1NC(=O)/C=C/CN(C)C` [EKB-569], the “treatment of Aβ42-induced memory loss” value in data set [1] is “effective”.

For `CCOc1cc2ncc(C#N)c(Nc3ccc(OCc4cccc(F)c4)c(Cl)c3)c2cc1NC(=O)/C=C/CN(C)C` [HKI-357], in data set [1], the “treatment of Aβ42-induced memory loss” value is given as “effective”.

`N#C/C(=C\c1ccc(N2CCOCC2)o1)C(=O)NCCc1c[nH]c2ccccc12` [JKF-027]: the “curative effect in screening” value in data set [1] is given as “preferable curative effect”. Moreover, the “treatment of Aβ42-induced memory loss” value in data set [1] is “effective”. Further, the “Mean value of cell viability based” value in data set [2] (0.01 μM drug + Aβ42 10 μmol/L) came out at 46.83%; in data set [2] (0.1 μM drug + Aβ42 10 μmol/L), 61.39%; in data set [2] (1.0 μM drug + Aβ42 10 μmol/L), 65.31%; in data set [2] (10 μM drug + Aβ42 10 μmol/L) it was 77.28%; in data set [2] (100 μM drug + Aβ42 10 μmol/L), 40.52%; in data set [2] (1000 μM drug + Aβ42 10 μmol/L), 21.89%. Further, the “Cell viability data in the first independent test” value is recorded as 49.59% in data set [2] (setting [4]); 77.44% in data set [2] (0.1 μM/L drug + Aβ42 10 μmol/L); 61.59% in data set [2] (1 μM/L drug + Aβ42 10 μmol/L); 87.60% in data set [2] (10 μM/L drug + Aβ42 10 μmol/L); 51.83% in data set [2] (100 μM/L drug + Aβ42 10 μmol/L); 27.85% in data set [2] (setting [5]). The “Cell viability data in the second independent test” value worked out at 45.88% in data set [2] (setting [4]); 48.40% in data set [2] (0.1 μM/L drug + Aβ42 10 μmol/L); 61.01% in data set [2] (1 μM/L drug + Aβ42 10 μmol/L); 69.75% in data set [2] (10 μM/L drug + Aβ42 10 μmol/L); 46.89% in data set [2] (100 μM/L drug + Aβ42 10 μmol/L); 18.66% in data set [2] (setting [5]). Also, the “Cell viability data in the third independent test” value stood at 45.00% in data set [2] (setting [4]); 58.33% in data set [2] (0.1 μM/L drug + Aβ42 10 μmol/L); 73.33% in data set [2] (1 μM/L drug + Aβ42 10 μmol/L); 74.50% in data set [2] (10 μM/L drug + Aβ42 10 μmol/L); 22.83% in data set [2] (100 μM/L drug + Aβ42 10 μmol/L); 19.17% in data set [2] (setting [5]). The “effective concentration range (anti-toxic effect against Aβ42 oligomer)” value in data set [2] (setting [6]) fell in the range of 0.1 to 10 µmol/L. The molecule further gave an optimum anti-toxic concentration in data set [2] (setting [6]) of 0.1 to 10 µmol/L.

For the molecule `N#C/C(=C\c1ccc(-c2cc(C(=O)O)ccc2Cl)o1)C(=O)Nc1ccc(F)cc1` [JKF-006], in data set [1], the “curative effect in screening” value is given as “preferable curative effect” and the “treatment of Aβ42-induced memory loss” value is listed as “effective”.

Turning to `CN(C)C/C=C/C(=O)Nc1cc2c(Nc3ccc(F)c(Cl)c3)ncnc2cc1O[C@H]1CCOC1` [BIBW 2992], the “treatment of Aβ42-induced memory loss” value in data set [1] was “effective”.

As to `CCN1CCN(Cc2ccc(-c3cc4c(N[C@H](C)c5ccccc5)ncnc4[nH]3)cc2)CC1` [AEE 788], the “treatment of Aβ42-induced memory loss” value in data set [1] is reported as “effective”.

In the case of `C=CCNc1c(O)cc2c(O)c1C[C@@H](C)C[C@H](OC)[C@H](O)[C@@H](C)/C=C(\C)[C@H](OC(N)=O)[C@@H](OC)/C=C\C=C(/C)C(=O)N2` [IPI-504], the “treatment of Aβ42-induced memory loss” value in data set [1] is “effective”.

As for `CC#CC(=O)Nc1ccc2ncnc(Nc3cccc(Br)c3)c2c1` [CL-387785], the “treatment of Aβ42-induced memory loss” value in data set [1] is “effective”.

Regarding `COc1cc2c(Nc3ccc(Br)cc3F)ncnc2cc1OCC1CCN(C)CC1` [ZD-6474], the “treatment of Aβ42-induced memory loss” value in data set [1] is given as “effective”.

Regarding `Cc1c(NC(=O)OC[C@@H]2COCCN2)cn2ncnc(Nc3ccc4c(cnn4Cc4cccc(F)c4)c3)c12` [BMS-599626], the “treatment of Aβ42-induced memory loss” value in data set [1] was “effective”.
